Data on six molecules can be found in US10220033B2, “Substituted benzoxazepine for cancer therapy” (University of Cape Town, priority 2014, dated 2019).

Assay [1] has as its system MCF7 breast cancer cell line. The assay is described as follows: MTT assay for cell viability, IC50 determination. In kind it is cell-based. The following applies: Homo sapiens, compound in salt form. How it is done: (§1) Cells were plated in 96-well plates and treated with varying concentrations of a test compound for 48 hours, after which MTT dye, 3-(4,5-dimethylthiazol-2-yl)-2,5-diphenyltetrazolium bromide (Sigma), was added, and crystals solubilised 4 hours later using Solubilisation Reagent (10% SLS in 0.01 M HCl). Absorbencies were measured at 595 nm the following day using a BioTek microplate spectrophotometer (Winooski, Vt., USA) and IC50 curves were generated using GraphPad Prism.

Assay [2] relates to EPC2 (EPC2-hTERT normal immortalised oesophageal epithelial cells). The assay is described as follows: MTT assay for cell viability, IC50 determination. In kind it is cell-based. The note with it: Homo sapiens, compound in salt form. On the procedure: as §1
Assay [3] deals with SVWI38 transformed cell line. The assay is described as follows: MTT assay for cell viability, IC50 determination. In kind it is cell-based. The note with it: SVWI38; compound in salt form. On the procedure:
as §1

For assay [4], the system named is MDA-MB-231 breast cancer cell line. As to the kind of experiment: MTT assay for cell viability, IC50 determination. In kind it is cell-based. The note with it: Homo sapiens, compound in salt form. On the procedure:
as §1

Assay [5] is described as follows: MTT assay for cell viability, IC50 determination. In kind it is cell-based. The following applies: Homo sapiens, MCF-12A; MCF12A; compound in salt form. How it is done: as §1
In assay [6] the test system is DMB normal skin fibroblasts (non-cancer). The assay is described as follows: MTT assay for cell viability, IC50 determination. The following applies: Skin fibroblast; DMB; compound in salt form. In kind it is cell-based. How it is done: as §1
The test system of assay [7] is KYSE150 oesophageal cancer cell line. As to the kind of experiment: MTT assay for cell viability, IC50 determination. In kind it is cell-based. The note with it: Homo sapiens, KYSE-150; Kyse150; compound in salt form. On the procedure: as §1
The subject of assay [8] is WI38 non-cancer cell line. The assay is described as follows: MTT assay for cell viability, IC50 determination. Format: cell-based. The note with it: Homo sapiens, WI-38; WI38; compound in salt form. How it is done: as §1
For assay [9], the system named is CaSki cervical cancer cell line. As to the kind of experiment: MTT assay for cell viability, IC50 determination. The following applies: Homo sapiens, Ca-Ski, read-out: IC50. Format: cell-based. How it is done: as §1
For assay [10], the system named is HeLa cervical cancer cell line. The assay is described as follows: MTT assay for cell viability, IC50 determination. In kind it is cell-based. The note with it: Homo sapiens, HeLa, read-out: IC50. On the procedure:
as §1

Assay [11] has as its system WHCO5 oesophageal cancer cell line. The assay is described as follows: MTT assay for cell viability, IC50 determination. Format: cell-based, human. The note with it: Homo sapiens, compound in salt form. How it is done: as §1
In assay [12] the test system is FG0 normal skin fibroblasts (non-cancer). As to the kind of experiment: MTT assay for cell viability, IC50 determination. Format: cell-based. The note with it: Skin fibroblast, 48 hours. How it is done:
as §1

The subject of assay [13] is HeLa cancer cells and FG0 non-cancer cells. As to the kind of experiment: Cell proliferation monitored using the MTT assay (FIGS. 6 and 7). In kind it is cell-based. The note with it: increasing concentrations; HeLa and FG0 (FIGS. 6 and 7).
Assay [14] concerns NFAT transcriptional activity in NFAT-transfected HeLa cells. As to the kind of experiment: NFAT luciferase reporter assay. Format: cell-based. The following applies: stimulated with TPA and ionomycin (FIGS. 16-20). How it is done: To assay for NFAT luciferase activity, 30 000 HeLa cells were plated per well in 24-well plates, and transfected with 50 ng GFP-NFAT plasmid (Addgene plasmid #24219, gift of Jerry Crabtree (Beals C R, Clipstone N A, Ho S N, Crabtree G R. Nuclear localization of NF-ATc by a calcineurin-dependent, cyclosporin-sensitive intramolecular interaction. Genes Dev 1997 Apr. 1; 11(7):824-34)), 50 ng NFAT-luciferase (Addgene plasmid #10959, gift of Toren Finkel (Ichida M, Finkel T. Ras regulates NFAT3 activity in cardiac myocytes. J Biol Chem 2001 Feb. 2; 276(5):3524-30)), and 5 ng pRL-TK, using 0.4 μl Genecellin™ Transfection Reagent (Celtic Molecular Diagnostics, South Africa). The NFAT-luciferase reporter plasmid contains three tandem repeats of a 30 bp fragment of the IL-2 promoter known to bind NFAT. The following day cells were treated with 10 or 15 μM Compound A and after an overnight incubation, stimulated with 100 nM TPA (Sigma) and 1.3 μM Ionomycin (Santa Cruz Biotechnology, Santa Cruz, Calif., USA) for 5 hours, following which luciferase activity was measured.
An assay for nuclear NFAT following ionomycin and Compound A treatment was carried out, using an NFAT-luciferase reporter that is activated by nuclear NFAT. The phorbol ester TPA was used to co-stimulate NFAT, as it has been shown previously that TPA and ionomycin elicit synergistic stimulation of NFAT luciferase activity (Northrop J P, Ullman K S, Crabtree G R. Characterization of the nuclear and cytoplasmic components of the lymphoid-specific nuclear factor of activated T cells (NF-AT) complex. J Biol Chem 1993 Feb. 5; 268(4):2917-23).

In assay [15] the test system is cancer cell lines. As to the kind of experiment: MTT cell viability, summary statements over panels of cancer cell lines. Format: cell-based. The following applies: CaSki and HeLa (Tables 2 and 3); read-out: IC50 values (cancer cell-killing effects). How it is done:
as §1

Assay [16] relates to PARP cleavage in CaSki cells. As to the kind of experiment: PARP cleavage analysis by Western Blot. The following applies: IC50 and twice the IC50 (FIG. 5), varying concentrations 12 hours (FIG. 26). Format: cell-based. On the procedure: CaSki cells were treated with varying concentrations of Compound A for 12 hours, following which cells and cell floaters were harvested using RIPA buffer (10 mM Tris-Cl, pH 7.4, 150 mM NaCl, 1% sodium deoxycholate, 0.1% SDS, 1% Triton X-100, 1× complete protease inhibitor cocktail (Roche, Mannheim, Germany)) and Western Blot analysis performed, using a rabbit anti-Parp1/2 (H-250) antibody (sc-7150).

Assay [17] has as its system p65 nuclear import (Kpnβ1 cargo protein). As to the kind of experiment: Percentage of nuclear and cytoplasmic p65 (FIG. 4). In kind it is cell-based.

Read-outs that look alike come from different tables or passages of the source.

For `Cc1ccc(OC[C@@H](O)CNCc2ccc3c(c2)OCO3)cc1C` [Compound XIII, 1-(benzo[1,3]dioxol-5-ylmethylamino)-3-(3,4-dimethylphenoxy)-propan-2-ol], the IC50 stood at 44.5 µM in [1]; 34.6 µM in [2]; 42.1 µM in assay [3]; 33 µM in assay [4]; 49.3 µM in [5]; 93 µM in assay [6]. Also, the IC50 in assay [7] was 98.4 µM; in assay [8] it was 36.2 µM; in assay [9] (48 h, MTT) it was 39.5 µM; in [9] (compound in salt form) it was 39.5 µM; in assay [10] (compound in salt form) it was 53.6 µM; in [11] it was 40.1 µM.

As to `CC(C)Cc1ccc(CNCc2cccnc2N2CCCN(C)CC2)s1` [Compound XII, 1-(5-isobutyl-2-thienyl)-N-[[2-(4-methyl-1,4-diazepan-1-yl)-3-pyridyl]methyl]methanamine], the IC50 turned out to be 44.9 µM in [1]; 41.6 µM in [2]; 31.3 µM in assay [3]; 30 µM in assay [4]; 34.1 µM in assay [5]; 57 µM in assay [6]. Besides, the IC50 amounted to 25.5 µM in assay [7]; 33.8 µM in [8]; 27.4 µM in assay [9] (48 h, MTT); 27.4 µM in assay [9] (compound in salt form); 23.1 µM in assay [10] (compound in salt form); 20.3 µM in assay [11].

For the molecule `CNC(=O)[C@@H]1C[C@H](NCc2ccc(OC)c3ccccc23)CN1Cc1ccccc1` [Compound III, (2S,4S)-1-benzyl-4-{[(4-methoxynaphthalen-1-yl)methyl]amino}-N-methylpyrrolidine-2-carboxamide], the IC50 in [9] (48 h, MTT) is 34.1 µM; in assay [12], 44.9 µM; in [10] (48 h, 48 hours, MTT), 19.9 µM; in [15] it was under 50 µM. In addition, the cell proliferation result in assay [13] is recorded as “inhibit cell proliferation”. In addition, the “NFAT activation (NFAT-luciferase reporter)” value in [14] is listed as “significantly diminished NFAT activation”. Moreover, in assay [16], the “PARP cleavage as an indicator of apoptosis” value is “induce cancer cell death via apoptosis”. The “nuclear import of Kpnβ1 cargo protein (percentage of nuclear p65 relative to cytoplasmic p65)” value in assay [17] is reported as “inhibit the nuclear import of Kpnβ1 cargo protein”.

Consider `Cc1cccc(N[C@@H](c2ccc(N(C)C)cc2)c2ccc3ccc(C)nc3c2O)n1` [Compound IX, 7-[(4-dimethylaminophenyl)-[(6-methyl-2-pyridyl)amino]methyl]-2-methyl-quinolin-8-ol], for which the IC50 was found to be 50.2 µM in [1]; 5.78 µM in [2]; 15.3 µM in assay [3]; 10.4 µM in assay [4]; 27.8 µM in [5]; 40.9 µM in assay [6]. For the same molecule, the IC50 in assay [7] turned out to be 9.08 µM; in [8] it was 20.8 µM; in assay [9] (48 h, MTT), 26.6 µM; in [9] (compound in salt form), 26.6 µM; in assay [10] (compound in salt form), 12.3 µM; in assay [11] it was 22.4 µM.

On to `Cc1csc2nc(CNCc3cc4cc5c(cc4n(CC4CCCCC4)c3=O)CCC5)cn12` [Compound X, 1-(cyclohexylmethyl)-3-[[(3-methylimidazo[2,1-b]thiazol-6-yl)methylamino]methyl]-7,8-dihydro-6H-cyclopenta[g]quinolin-2-one], for which the IC50 was 23.7 µM in assay [1]; 9.37 µM in [2]; 33.5 µM in assay [3]; 22.1 µM in assay [4]; 11.7 µM in assay [5]; 69.3 µM in [6]. Moreover, the IC50 in assay [7] turned out to be 32.2 µM; in assay [8], 39.4 µM; in [9] (48 h, MTT), 26.7 µM; in [9] (compound in salt form), 26.7 µM; in assay [10] (compound in salt form) it was 21.5 µM; in [11], 20 µM.

For the molecule `Cc1cccc(CN2CCOc3c(cc(-c4ccc(C)s4)cc3OCC3CCCN(C)C3)C2)n1` (stereo not shown) [Compound II, 9-[(1-methylpiperidin-3-yl)methoxy]-4-[(6-methylpyridin-2-yl)methyl]-7-(5-methylthiophen-2-yl)-3,5-dihydro-2H-1,4-benzoxazepine], the IC50 in [9] (48 h, MTT) was 11.4 µM; in assay [12] it was 17.2 µM; in assay [10] (48 h, 48 hours, MTT), 14.4 µM; in assay [15] it was under 50 µM. Also, in [13], the cell proliferation entry is “inhibit cell proliferation”. Further, the “NFAT activation (NFAT-luciferase reporter)” value in assay [14] is listed as “significantly diminished NFAT activation”. In addition, in [16], the “PARP cleavage as an indicator of apoptosis” value was “induce cancer cell death via apoptosis”. Moreover, in assay [17], the “nuclear import of Kpnβ1 cargo protein (percentage of nuclear p65 relative to cytoplasmic p65)” value is reported as “inhibit the nuclear import of Kpnβ1 cargo protein”.
